Several values for one entry are separate records, joined by “and”; a condition that tells them apart may be missing. Equal values may be shown once. Non-standard residues stand in square brackets, D forms with d. Residues, ends and D or L forms follow the SMILES beside them. *: point of attachment. Dolaproine = CO[C@@H]([C@@H]1CCCN1)[C@@H](C)C(=O)O; Dil = CC[C@H](C)[C@H](NC)[C@@H](CC(=O)O)OC; X1 = C[C@@H](N*)[C@@H](O)c1ccccc1; NMeV = CN[C@H](C(=O)O)C(C)C
Assays:
Mec-vector = assay: Cytotoxicity in vitro (CellTiter-Glo viability), Mec-vector; settings: read-out: EC50 (nM), cytotoxicity in vitro; Mec-vector (CLL), 72 hours
Method: (§1) Cells were cultured in log phase growth and distributed into 96-well plates. Each cell line was plated at a slightly different cell density, ranging from 5×10^3 to 50×10^4 cells/well. Cells in duplicate were incubated with 3-fold serial dilution of a particular immunoconjugate (10, 3.33, 1.11, 0.37, 0.12, 0.041, 0.014, and 0.0045 μM) for 72 hours at 37° C. and 5% CO2. After treatment, cells were incubated with an equal volume of CellTiter-Glo® reagent (Promega Inc.) for 15 minutes at room temperature and viability was determined by a luminometer. Curves and EC50 values were generated in GraphPad Prism using a sigmoidal dose response non-linear regression fit.
(§2) Cells were grown and distributed into 96-well plates as described in Example 5. Cells in duplicate were incubated with 3-fold serial dilution of a particular immunoconjugate (660, 220, 73.3, 24.4, 8.14, 2.71, 0.91, and 0.3 nM) for 72 hours at 37° C. and 5% CO2. In some experiments, cells were incubated with an immunoconjugate for 96 hours instead of 72 hours (values highlighted with “*”). After treatment, cell viability was determined as described in Example 5. Cell surface ROR1 expression was assessed by quantitative flow cytometry and ROR1 expression was characterized as MFI>30 or MFI<30 (MFI: mean fluorescent intensity). […]

Mec-ROR = assay: Cytotoxicity in vitro (CellTiter-Glo viability), Mec-ROR; settings: read-out: EC50 (nM), cytotoxicity in vitro; Mec-ROR (CLL), 72 hours
Method: as §1, §2

DOHH2 = settings: read-out: EC50 (nM), cytotoxicity in vitro; DOHH2 (DLBCL), 72 hours
Method: (§3) ROR1 binding by these conjugates was tested in cell culture to define the potency of various linker-cytotoxic agent combinations. Three different types of cancer cell lines were tested: B-lymphoma cell-lines TMD-8, HBL-1, and DOHH2; triple negative breast cancer cell lines HCC1187, MDA-MB-468, Bt549; and ovarian cancer cell lines A2008, TOV112D, JHOM1, and SKOvr3.
as §1
(§4) Cells were grown and distributed into 96-well plates as described in Example 5. […] After treatment, cell viability was determined as described in Example 5. Cell surface ROR1 expression was assessed by quantitative flow cytometry and ROR1 expression was characterized as MFI>30 or MFI<30 (MFI: mean fluorescent intensity).

U2932 = assay: Cytotoxicity in vitro (CellTiter-Glo viability), U2932; type: cell-based, human; settings: U2932 (DLBCL), 72 hours
WSU-DLCL = assay: Cytotoxicity in vitro (CellTiter-Glo viability), WSU-DLCL; type: cell-based, human; settings: WSU-DLCL (DLBCL), 72 hours
Bt549 = assay: Cytotoxicity in vitro (CellTiter-Glo viability), Bt549; type: cell-based, human; settings: Bt549 (TNBC), 72 hours
Method: (§5) Cells were grown and distributed into 96-well plates as described in Example 5. Cells in duplicate were incubated with 3-fold serial dilution of a particular immunoconjugate (660, 220, 73.3, 24.4, 8.14, 2.71, 0.91, and 0.3 nM) for 72 hours at 37° C. and 5% CO2. […] After treatment, cell viability was determined as described in Example 5.

DU4475 = assay: Cytotoxicity in vitro (CellTiter-Glo viability), DU4475; type: cell-based, human; settings: DU4475 (TNBC), 72 hours
HCC1937 = assay: Cytotoxicity in vitro (CellTiter-Glo viability), HCC1937; type: cell-based, human; settings: HCC1937 (TNBC), 72 hours
A549 = assay: Cytotoxicity in vitro (CellTiter-Glo viability), A549; type: cell-based, human; settings: A549 (NSCLC), 72 hours
Hep-G2 = type: cell-based, human; settings: Hep-G2 (HCC), 72 hours; read-out: EC50 (nM), cytotoxicity in vitro
U2OS = type: cell-based, human; settings: U2OS (OS), 72 hours; read-out: EC50 (nM), cytotoxicity in vitro
HOS = assay: Cytotoxicity in vitro (CellTiter-Glo viability), HOS; type: cell-based, human; settings: HOS (OS), 72 hours
SAOS = assay: Cytotoxicity in vitro (CellTiter-Glo viability), SAOS; type: cell-based, human; settings: SAOS (OS), 72 hours
FaDu = type: cell-based, human; settings: FaDu (HN), 72 hours; read-out: EC50 (nM), cytotoxicity in vitro
OvCar4 = assay: Cytotoxicity in vitro (CellTiter-Glo viability), OvCar4; type: cell-based, human; settings: OvCar4 (Ovarian), 72 hours
TOV112D = assay: Cytotoxicity in vitro (CellTiter-Glo viability), TOV112D; type: cell-based, human; settings: TOV112D (Ovarian), 72 hours
Method: as §5

JHOM1 = assay: Cytotoxicity in vitro (CellTiter-Glo viability), JHOM1; type: cell-based, human; settings: JHOM1 (Ovarian), 72 hours
Method: as §5

SKOvr3 = assay: Cytotoxicity in vitro (CellTiter-Glo viability), SKOvr3; type: cell-based, human; settings: SKOvr3 (Ovarian), 72 hours
Method: as §5

ES2 = assay: Cytotoxicity in vitro (CellTiter-Glo viability), ES2; type: cell-based, human; settings: ES2 (Ovarian), 72 hours
A2780 = assay: Cytotoxicity in vitro (CellTiter-Glo viability), A2780; type: cell-based, human; settings: A2780 (Ovarian), 72 hours
Bx-PC3 = assay: Cytotoxicity in vitro (CellTiter-Glo viability), Bx-PC3; type: cell-based, human; settings: Bx-PC3 (Pancreatic), 72 hours
As-PC1 = assay: Cytotoxicity in vitro (CellTiter-Glo viability), As-PC1; type: cell-based, human; settings: As-PC1 (Pancreatic), 72 hours
TMD-8 = assay: Cytotoxicity in vitro (CellTiter-Glo viability), TMD-8; type: cell-based, human; settings: TMD-8 (DLBCL), 72 hours
Method: as §5

HBL-1 = assay: Cytotoxicity in vitro (CellTiter-Glo viability), HBL-1; type: cell-based, human; settings: HBL-1 (DLBCL), 72 hours
HCC1187 = assay: Cytotoxicity in vitro (CellTiter-Glo viability), HCC1187; settings: read-out: EC50 (nM), cytotoxicity in vitro; HCC1187 (TNBC), 72 hours
Method: as §3, §1, §4

MDA-MB-468 = assay: Cytotoxicity in vitro (CellTiter-Glo viability), MDA-MB-468; settings: read-out: EC50 (nM), cytotoxicity in vitro; MDA-MB-468 (TNBC), 72 hours
Method: as §3, §1, §4

Hep-3B = assay: Cytotoxicity in vitro (CellTiter-Glo viability), Hep-3B; type: cell-based; settings: Homo sapiens, Hep3B; Hep-3B (HCC), 72 hours
MDA-MB-231 = assay: Cytotoxicity in vitro (CellTiter-Glo viability), MDA-MB-231; type: cell-based, human; settings: MDA-MB-231 (TNBC), 72 hours
H460 = assay: Cytotoxicity in vitro (CellTiter-Glo viability), H460; type: cell-based, human; settings: H460 (NSCLC), 72 hours

CC[C@H](C)[C@@H]([C@@H](CC(=O)N1CCC[C@H]1[C@H](OC)[C@@H](C)C(=O)N[C@H](C)[C@@H](O)c1ccccc1)OC)N(C)C(=O)[C@@H](NC(=O)[C@@H](NC)C(C)C)C(C)C [MMAE, monomethyl auristatin E, reference compound] (H-[NMeV]V[Dil][Dolaproine]-X1)
EC50 (Mec-vector): 0.5 nM
EC50 (Mec-ROR): 0.6 nM
EC50 (DOHH2): 0.007 nM
EC50 (U2932): 0.006 nM
EC50 (WSU-DLCL): 0.06 nM
EC50 (Bt549): 0.047 nM
EC50 (DU4475): 2.5 nM
EC50 (HCC1937): > 1000 nM
EC50 (A549): 0.06 nM
EC50 (Hep-G2): > 1000 nM
EC50 (U2OS): 1.2 nM
EC50 (HOS): 0.06 nM
EC50 (SAOS): 0.05 nM
EC50 (FaDu): > 1000 nM
EC50 (OvCar4): 24.2 nM
EC50 (TOV112D): 0.04 nM
EC50 (JHOM1): 0.01 nM
EC50 (SKOvr3): 0.01 nM
EC50 (ES2): 1.1 nM
EC50 (A2780): 0.08 nM
EC50 (Bx-PC3): 0.04 nM
EC50 (As-PC1): 0.04 nM

COc1cc2cc(c1Cl)N(C)C(=O)C[C@H](OC(=O)[C@H](C)N(C)C(=O)CCS)[C@]1(C)O[C@H]1[C@H](C)[C@@H]1C[C@@](O)(NC(=O)O1)[C@H](OC)/C=C/C=C(\C)C2 [DM1, N2′-Deacetyl-N2′-(3-mercaptol-oxopropyl)maytansine]
EC50 (TMD-8): 1.4 nM
EC50 (HBL-1): 9.3 nM
EC50 (DOHH2): 1.78 nM
EC50 (HCC1187): 3.9 nM
EC50 (MDA-MB-468): 15.2 nM
EC50 (Bt549): 0.047 nM
EC50 (OvCar4): > 1000 nM
EC50 (TOV112D): 2.4 nM
EC50 (JHOM1): 0.01 nM
EC50 (SKOvr3): 9.1 nM

CN(C)CCN1C(=O)c2cccc3cc4ccccc4c(c23)C1=O [Azonafide, azonafide, reference compound]
EC50 (A549; Homo sapiens): > 1000 nM
EC50 (Hep-3B): > 1000 nM

COc1cccc2c1C(=O)c1c(O)c3c(c(O)c1C2=O)C[C@@](O)(C(=O)CO)C[C@@H]3O[C@H]1C[C@H]2[C@H](O[C@@H]3[C@@H](OC)OCCN32)[C@H](C)O1 [PNU-159682, reference compound]
EC50 (MDA-MB-231): 0.005 nM
EC50 (H460): 0.001 nM and 0.002 nM

Source: patent publication USRE50631E1, “ROR1 antibody immunoconjugates” (VelosBio Inc., priority 2017, dated 2025)
